Measurements: US8338422B2, “Indolin-2-ones and aza-indolin-2-ones” (Janssen Pharmaceutica NV, priority 2007, dated 2012)

Assays:
MCF-7 = experiment: Cellular proliferation assay (Alamar blue), MCF-7; format: cell-based; conditions: Homo sapiens, MCF7, MCF-7 cells, 72 hours with compound, 10% FCS, read-out: pIC50 MCF-7 (converted)
Experimental: (§1) […] functional properties of these compounds was tested in cellular proliferation assays on a panel of different cell lines in the presence of 10% FCS serum (37° C. and 5% (v/v) CO2). In a first step these cells were seeded and incubated for 24 hours in the absence of compound. In the second step the cells were incubated for 72 hours with the compounds to be tested for 72 hours. The viable cell number was finally assessed in a standard Alamar blue cell viability assay.
(§2) The viable cell number was assessed by incubation for either 4 h (HCT-116, H1299, H460) 6 h (SKOV3, HT29, U87-MG, Colo205) or 24 h (A2780, PC3, MDA-MB-231, A549, MCF-7) with Alamar blue (Resazurin 9 μg/ml, K-Ferrocyanide 90 μM K-Ferricyanide 90 μM) and the converted fluorescent product was quantified on a fluorescent plate readed (544 nm/590 nm). Effect of the compounds is calculated as of on control cells.

HCT-116 = experiment: Cellular proliferation assay (Alamar blue), HCT-116; format: cell-based; conditions: Homo sapiens, HCT-116, 72 h, HCT-116 cells, 72 hours with compound, 10% FCS, read-out: pIC50 HCT-116 (converted)
How it was run: (§3)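 Proliferation was assessed over 72 h of compound treatment, following 24 h of seeding without compound, under 10% FCS, 37° C. and 5% CO2. Fluorescent resazurin product was measured and compared with control cells.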

HT-29 = experiment: Cellular proliferation assay (Alamar blue), HT-29; format: cell-based; conditions: Homo sapiens, HT-29 cells, 72 hours with compound, 10% FCS, read-out: pIC50 HT-29 (converted)
Experimental: as §1, §2

Colo205 = experiment: Cellular proliferation assay (Alamar blue), Colo205; format: cell-based; conditions: Homo sapiens, COLO 205, Colo205 cells, 72 hours with compound, 10% FCS, read-out: pIC50 Colo205 (converted)
Experimental: as §1, §2

SK-N-SH = experiment: Cellular proliferation assay (Alamar blue), SK-N-SH; format: cell-based; conditions: Homo sapiens, SK-N-SH cells, 72 hours with compound, 10% FCS, read-out: pIC50 SK-N-SH (converted)
Experimental: as §1, §2

DU-145 = experiment: Cellular proliferation assay (Alamar blue), DU-145; format: cell-based; conditions: Homo sapiens, DU-145 cells, 72 hours with compound, 10% FCS, read-out: pIC50 DU-145 (converted)
Experimental: as §1, §2

SKOV3 = experiment: Cellular proliferation assay (Alamar blue), SKOV3; format: cell-based; conditions: Homo sapiens, SK-OV-3, SKOV3 cells, 72 hours with compound, 10% FCS, read-out: pIC50 SKOV3 (converted)
Experimental: as §1, §2

MDA/MB231 = experiment: Cellular proliferation assay (Alamar blue), MDA/MB231; format: cell-based; conditions: Homo sapiens, MDA-MB-231, 72 h, MDA/MB231 cells, 72 hours with compound, 10% FCS, read-out: pIC50 MDA/MB231 (converted)
How it was run: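 Viable cell number was assessed by resazurin-based Alamar blue fluorescence (544 nm/590 nm) after 72 h compound exposure in 10% FCS at 37° C, which followed a 24 h compound-free seeding period. Dye incubation was 24 h for MDA-MB-231 and 4 h for H460; results expressed versus control cells.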

PC-3 = experiment: Cellular proliferation assay (Alamar blue), PC-3; format: cell-based; conditions: Homo sapiens, PC-3, 72 h, PC-3 cells, 72 hours with compound, 10% FCS, read-out: pIC50 PC-3 (converted)
How it was run: as §3

H1299 = experiment: Cellular proliferation assay (Alamar blue), H1299; format: cell-based; conditions: Homo sapiens, NCI-H1299, 72 h, H1299 cells, 72 hours with compound, 10% FCS, read-out: pIC50 H1299 (converted)
How it was run: as §3

A431 = experiment: Cellular proliferation assay (Alamar blue), A431; format: cell-based; conditions: Homo sapiens, A-431, A431 cells, 72 hours with compound, 10% FCS, read-out: pIC50 A431 (converted)
Experimental: as §1, §2

H460 = experiment: Cellular proliferation assay (Alamar blue), H460; format: cell-based; conditions: Homo sapiens, NCI-H460, H460 cells, 72 hours with compound, 10% FCS, read-out: pIC50 H460 (converted)
Experimental: as §1, §2

AuroraB (h) = AuroraB (h) (Homo sapiens, UniProt Q96GD4); experiment: Aurora-B human kinase assay (SPA); format: biochemical; conditions: read-out: AuroraB pIC50 (converted)
Sequence of AuroraB (h) (Q96GD4 whole entry): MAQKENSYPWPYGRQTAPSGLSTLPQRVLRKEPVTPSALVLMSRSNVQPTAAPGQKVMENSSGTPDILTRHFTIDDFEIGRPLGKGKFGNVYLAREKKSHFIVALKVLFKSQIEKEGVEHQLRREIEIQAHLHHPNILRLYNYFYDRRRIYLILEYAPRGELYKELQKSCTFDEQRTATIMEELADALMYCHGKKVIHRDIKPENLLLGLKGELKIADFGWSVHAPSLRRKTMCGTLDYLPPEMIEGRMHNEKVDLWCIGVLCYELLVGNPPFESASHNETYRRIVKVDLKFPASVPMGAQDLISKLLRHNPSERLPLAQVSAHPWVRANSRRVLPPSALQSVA
How it was run: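 Scintillation proximity assay: AuroraB (h) at 0.5 μg/ml with 3 μM biotinylated peptide, 0.5 μM ATP and 2.2 nM [γ-33P]ATP in 60 mM Hepes pH 7.5, 3 mM MgCl2, 3 mM MnCl2, 2 mM DTT. 60 min at room temperature, EDTA stop, streptavidin PVT beads read on Leadseeker.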

A549 = experiment: Cellular proliferation assay (Alamar blue), A549; format: cell-based; conditions: Homo sapiens, A549 cells, 72 hours with compound, 10% FCS, read-out: pIC50 A549 (converted)
Experimental: as §1, §2

PLK4 (h) = PLK4 (h) (Homo sapiens, UniProt O00444); experiment: PLK-4 human kinase assay (SPA); format: biochemical; conditions: read-out: PLK4 pIC50 (converted)
Sequence of PLK4 (h) (O00444 whole entry): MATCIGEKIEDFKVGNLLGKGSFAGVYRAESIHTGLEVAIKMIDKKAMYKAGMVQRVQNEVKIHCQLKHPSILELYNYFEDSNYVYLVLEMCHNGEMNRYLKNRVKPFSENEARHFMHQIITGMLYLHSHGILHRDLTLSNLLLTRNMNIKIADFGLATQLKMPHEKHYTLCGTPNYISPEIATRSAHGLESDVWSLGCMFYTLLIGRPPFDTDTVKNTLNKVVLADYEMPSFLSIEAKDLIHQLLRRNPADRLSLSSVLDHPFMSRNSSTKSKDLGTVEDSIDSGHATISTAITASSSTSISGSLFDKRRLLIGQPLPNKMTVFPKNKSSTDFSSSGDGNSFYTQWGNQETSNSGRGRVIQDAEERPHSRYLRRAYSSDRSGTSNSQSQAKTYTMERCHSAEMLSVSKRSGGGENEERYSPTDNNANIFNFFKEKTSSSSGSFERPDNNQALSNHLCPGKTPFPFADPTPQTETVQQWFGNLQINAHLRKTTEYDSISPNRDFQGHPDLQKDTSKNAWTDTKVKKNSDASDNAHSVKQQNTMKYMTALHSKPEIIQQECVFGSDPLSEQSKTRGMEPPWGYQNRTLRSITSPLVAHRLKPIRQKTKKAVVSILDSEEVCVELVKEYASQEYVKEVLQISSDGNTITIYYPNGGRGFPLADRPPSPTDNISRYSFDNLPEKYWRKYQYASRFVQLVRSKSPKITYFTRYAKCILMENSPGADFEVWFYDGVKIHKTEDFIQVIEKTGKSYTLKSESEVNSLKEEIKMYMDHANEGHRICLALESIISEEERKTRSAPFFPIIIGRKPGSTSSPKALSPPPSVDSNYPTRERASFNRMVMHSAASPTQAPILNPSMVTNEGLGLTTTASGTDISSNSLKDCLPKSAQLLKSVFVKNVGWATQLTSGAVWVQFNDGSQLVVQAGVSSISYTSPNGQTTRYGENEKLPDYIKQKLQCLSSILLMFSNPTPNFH
How it was run: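 Radiometric readout: 33P-labelled peptide captured on streptavidin SPA beads after EDTA stop, imaged by Leadseeker. Reaction ran 60 min at room temperature in Hepes pH 8.0 buffer. It contained 1 μM ATP with 2 nM [γ-33P]ATP, 10 μM biotinylated peptide and PLK4 (h) at 19 μg/ml.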

A2780 = experiment: Cellular proliferation assay (Alamar blue), A2780; format: cell-based; conditions: Homo sapiens, A2780, 72 h, A2780 cells, 72 hours with compound, 10% FCS, read-out: pIC50 A2780 (converted)
How it was run: as §3

U87MG = experiment: Cellular proliferation assay (Alamar blue), U87MG; format: cell-based; conditions: Homo sapiens, U-87 MG, 72 h, U87MG cells, 72 hours with compound, 10% FCS, read-out: pIC50 U87MG (converted)
How it was run: as §3

GSK3β (h) = GSK3β (h) (Homo sapiens, UniProt P49841); experiment: GSK-3β human kinase assay (SPA); format: biochemical; conditions: read-out: GSK3B pIC50 (converted)
Sequence of GSK3β (h) (P49841 whole entry): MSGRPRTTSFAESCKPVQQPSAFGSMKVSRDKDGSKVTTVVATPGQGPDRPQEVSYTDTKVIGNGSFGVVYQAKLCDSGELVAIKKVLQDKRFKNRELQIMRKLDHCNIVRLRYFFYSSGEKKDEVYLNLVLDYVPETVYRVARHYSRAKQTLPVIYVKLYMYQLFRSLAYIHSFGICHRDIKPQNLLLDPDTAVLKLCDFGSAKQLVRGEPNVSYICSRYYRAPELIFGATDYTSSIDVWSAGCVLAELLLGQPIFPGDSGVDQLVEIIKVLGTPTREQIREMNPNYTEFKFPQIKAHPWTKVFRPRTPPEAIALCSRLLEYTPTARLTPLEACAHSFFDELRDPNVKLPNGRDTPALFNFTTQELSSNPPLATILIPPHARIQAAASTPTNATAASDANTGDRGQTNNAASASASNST
How it was run: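 Radiometric SPA read-out: after EDTA stop, biotinylated 33P-labelled peptide bound streptavidin PVT beads and was imaged on Leadseeker. Reaction: 60 min, room temperature, GSK3β (h) at 1 μg/ml, 1 μM substrate peptide, 1 μM ATP with 2 nM [γ-33P]ATP, Tris pH 7.4/MgCl2/DTT buffer.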

CDK1/CyclinB (h) = CDK1/CyclinB (h) (Homo sapiens, UniProt P06493); experiment: CDK1/CyclinB human kinase assay (FRET); format: biochemical; conditions: read-out: CDK1 pIC50 (converted)
Sequence of CDK1/CyclinB (h) (P06493 whole entry): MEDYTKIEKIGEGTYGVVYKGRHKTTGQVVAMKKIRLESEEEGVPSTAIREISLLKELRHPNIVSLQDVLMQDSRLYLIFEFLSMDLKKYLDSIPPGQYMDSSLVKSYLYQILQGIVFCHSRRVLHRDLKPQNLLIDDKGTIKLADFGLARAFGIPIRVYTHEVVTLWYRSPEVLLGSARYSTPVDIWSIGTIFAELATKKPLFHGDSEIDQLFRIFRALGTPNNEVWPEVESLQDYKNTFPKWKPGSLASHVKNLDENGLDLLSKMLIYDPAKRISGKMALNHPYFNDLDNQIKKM
Sequence of CDK1/CyclinB (h) (P14635 whole entry partner): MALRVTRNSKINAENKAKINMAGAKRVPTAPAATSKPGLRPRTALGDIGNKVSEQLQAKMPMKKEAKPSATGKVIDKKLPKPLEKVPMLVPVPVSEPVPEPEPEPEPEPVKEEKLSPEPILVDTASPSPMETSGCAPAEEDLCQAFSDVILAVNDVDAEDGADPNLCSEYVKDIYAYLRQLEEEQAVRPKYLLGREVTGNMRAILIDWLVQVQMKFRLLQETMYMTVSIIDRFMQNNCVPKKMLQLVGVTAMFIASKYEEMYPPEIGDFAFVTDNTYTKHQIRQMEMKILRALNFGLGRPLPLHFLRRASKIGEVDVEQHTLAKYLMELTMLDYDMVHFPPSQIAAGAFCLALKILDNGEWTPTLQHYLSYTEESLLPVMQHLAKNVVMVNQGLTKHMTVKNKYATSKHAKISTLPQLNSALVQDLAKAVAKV
How it was run: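 Z'-LYTE FRET format: 0.2 μg/ml enzyme with 2 μM Ser/Thr peptide 12 and 10 μM ATP in 50 mM Hepes pH 7.5, 10 mM MgCl2, 1 mM EGTA, 0.01% Brij-35, 60 min at room temperature. Protease development 60 min; coumarin/fluorescein emission ratio (460/538 nm, excitation 390 nm) reports phosphorylation.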

O=C1Nc2ncnc3c2/C1=C/Nc1ccc(c(Cl)c1)OCCCCCCC(=O)N1CCN3CC1 [Compound 20]
> 10 µM: IC50 (MCF-7) | IC50 (HCT-116) | IC50 (HT-29) | IC50 (DU-145) | IC50 (SKOV3) | IC50 (MDA/MB231) | IC50 (PC-3) | IC50 (H1299) | IC50 (A431) | IC50 (H460) | IC50 (AuroraB (h)) | IC50 (A549)
6.61 µM: IC50 (SK-N-SH)
7.76 µM: IC50 (Colo205)

O=C1Nc2ncnc3c2/C1=C/Nc1ccc(c(F)c1)OCCCCCC(=O)N1CCN3CC1 [Compound 22]
> 10 µM: IC50 (MCF-7) | IC50 (HCT-116) | IC50 (HT-29) | IC50 (Colo205) | IC50 (PLK4 (h)) | IC50 (SK-N-SH) | IC50 (DU-145) | IC50 (SKOV3) | IC50 (MDA/MB231) | IC50 (PC-3) | IC50 (H1299) | IC50 (A431) | IC50 (H460) | IC50 (AuroraB (h)) | IC50 (A549)

COc1ccc2cc1OCCCC(=O)N1CCN(CC1)c1ncnc3c1/C(=C/N2)C(=O)N3 [Compound 17]
8.13 µM: IC50 (MCF-7)
7.76 µM: IC50 (U87MG)
10.7 µM: IC50 (PC-3)
3.47 µM: IC50 (A549)
3.31 µM: IC50 (SK-N-SH)
4.68 µM: IC50 (SKOV3)
> 10 µM: IC50 (HCT-116) | IC50 (HT-29) | IC50 (Colo205) | IC50 (A2780) | IC50 (DU-145) | IC50 (MDA/MB231) | IC50 (A431) | IC50 (H460) | IC50 (AuroraB (h))
1.62 µM: IC50 (PLK4 (h))

CN1CCCC(=O)NCC#Cc2cccc3c2/C(=C/Nc2cccc(c2)S(=O)(=O)N(C)CC1=O)C(=O)N3 [Compound 3]
3.16 µM: IC50 (PLK4 (h))
> 240 °C: melting point
1.86 µM: IC50 (GSK3β (h))
> 10 µM: IC50 (CDK1/CyclinB (h)) | IC50 (AuroraB (h))

CN1CC(=O)N(CCN2CCOCC2)CCC(=O)NCC#Cc2cccc3c2/C(=C/Nc2cccc(c2)S1(=O)=O)C(=O)N3 [Compound 5]
> 240 °C: melting point
4.17 µM: IC50 (PLK4 (h))
8.13 µM: IC50 (GSK3β (h))
8.32 µM: IC50 (AuroraB (h))
> 10 µM: IC50 (CDK1/CyclinB (h))

O=C1Nc2ncnc3c2C1=CNc1ccc(c(Cl)c1)OCCCCCC(=O)N1CCN3CC1 (mixture of isomers) [Compound 14]
> 10 µM: IC50 (MCF-7) | IC50 (HCT-116) | IC50 (HT-29) | IC50 (Colo205) | IC50 (PLK4 (h)) | IC50 (SK-N-SH) | IC50 (DU-145) | IC50 (SKOV3) | IC50 (MDA/MB231) | IC50 (PC-3) | IC50 (H1299) | IC50 (A431) | IC50 (H460) | IC50 (AuroraB (h)) | IC50 (A549)
